Laboratory results: patent US20090105301A1, “9A-SUBSTITUTED AZALIDES FOR THE TREATMENT OF MALARIA” (priority 2006, published 2009)
Values after ≈ are worked out from the molar mass of the structure shown. Where a name gives a salt, the structure may show the parent alone. Read-outs that look alike come from different tables or passages of the source.

Columns and labels:
Format in all cases: cell-based, Plasmodium falciparum
[1] = system: P. falciparum D6 (CDC/Sierra Leone I, D-6); assay: In vitro screening protocol I, [3H]-hypoxanthine incorporation, D6; settings: for IC50: Plasmodium falciparum
Description: (§1) Agents Chemother. 27 (4) (1985) 525-530). The system was limited to the assessment of the intrinsic activity against the erythrocytic asexual life cycle (blood schizontocides). Two Plasmodium falciparum clones from CDC/Indochina III (W-2) and CDC/Sierra Leone I (D-6) (Oduola A M, Weatherly N F, Bowdre J H, Desjardins R E. Plasmodium falciparum: cloning by single-erythrocyte micromanipulation and heterogeneity in vitro. Exp Parasitol. 66 (1) (1988) 86-95) were used for all assays. TM91C235, a multiple drug resistant isolate from Thailand (Antimicrob. Agents Chemother. 46 (8) (2002) 2627 and Antimicrob. Agents Chemother. 43 (3) (1999) 598-602), was used for the prescreening assay. W-2 is resistant to chloroquine, quinine, and pyrimethamine and susceptible to mefloquine. D-6 tends to be more resistant to mefloquine and susceptible to chloroquine, quinine, and pyrimethamine. All documents cited in this paragraph are incorporated by reference in their entirety.
(§2) All parasites were maintained in continuous long term cultures in RPMI-1640 medium supplemented with 6% washed human A positive (A+)(erythrocytes, 25 mM Hepes, […], and 10% heat inactivated A+ human plasma or ALBUMAX® (lipid-rich bovine serum albumin; Invitrogen, Carlsbad, Calif.). All cultures and assays were conducted at 37° C. under an atmosphere of 5% CO2 and 5% O2, with a balance of N2.
(§3) The prescreening assay uses TM91C235 diluted at a 0.4% parasitemia in a 1% hematocrit in folic acid free and p-aminobenzoic acid free media RPMI-1640 and ALBUMAX®. […] The compound is further diluted in folate free (FF) culture medium with ALBUMAX® for the first initial starting concentration. The rest of the stock drug solution was kept at −70° C. The isolate was preexposed, in duplicate, at three concentrations (25,000 ng/ml, 2,500 ng/ml, and […]) of the test compound for 48 hr in a 96-well microtiter plate (MTP) using the BIOMEK® 2000 automated laboratory workstation. Each MTP contains chloroquine as control to assess the relative activity of the compound and to monitor the response of TM91C235.
(§4) After the preincubation, [^3H]-hypoxanthine was added to each well of the MTP. (The assay relies on the incorporation of radiolabeled hypoxanthine by the parasites, which indicates reproduction, and inhibition of isotope incorporation was attributed to activity of known or candidate antimalarial drugs). After 72 hours of total incubation time, the MTP were frozen to lyse the erythrocytes and parasites. The parasite DNA was recovered by harvesting the lysate onto glass-fiber filter plates using a Packard FilterMate™ Cell Harvester. The radioactivity was counted on a Packard TopCount™ microplate scintillation counter.
(§5) The serial dilution assay was conducted using the same assay conditions and stock solution of the compound used for the preliminary screen, described above. Both the D-6 and the W-2 clones were used. The compounds were diluted two-fold over 11 different concentration ranges with a starting concentration that was based on the preliminary screen. For each drug, the concentration response profile was determined and 50% inhibitory concentrations (IC50) were determined by using a non-linear, logistic dose response analysis program. […] For each assay, the IC50 for each clone was determined against the known antimalarials chloroquine and mefloquine. These control values established the compound's relative parasite susceptibility profile compared to known antimalarials. […]

P. falciparum TM91C235 = assay: In vitro screening protocol I, [3H]-hypoxanthine incorporation, TM91C235; settings: for IC50: Plasmodium falciparum, read-out: IC50 TM91C235
Description: as §1, §2, §3, §4, §5

[2] = system: P. falciparum W2 (CDC/Indochina III, W-2); assay: In vitro screening protocol I, [3H]-hypoxanthine incorporation, W2; settings: for IC50: Plasmodium falciparum
Description: as §1, §2, §3, §4, §5

[3] = In vitro screening protocol I, P. falciparum D6, read-out: IC50 D6
[4] = In vitro screening protocol I, P. falciparum TM91C235
[5] = In vitro screening protocol I, P. falciparum W2, read-out: IC50 W2

Q: With `CC[C@H]1OC(=O)[C@H](C)[C@@H](O[C@H]2C[C@@](C)(OC)[C@@H](O)[C@H](C)O2)[C@H](C)[C@@H](O[C@@H]2O[C@H](C)C[C@H](N(C)C)[C@H]2O)[C@](C)(O)C[C@@H](C)CN(CCCNC(=O)Cc2ccc3ccccc3c2)[C@H](C)[C@@H](O)[C@]1(C)O` [Example 33, 9a-{3-[(Naphtalen-2-yl-acetyl)amino]propyl}-9a-aza-9-deoxo-9-dihydro-9a-homoerythromycin A Formiate Salt] as the molecule, how does the IC50 [1, 3] read?
A: 0.1 to 0.2 µg/mL

Q: And the IC50 (P. falciparum TM91C235; [4])?
A: < 0.1 µg/mL

Q: And the IC50 [2, 5]?
A: 0.2 to 1 µg/mL

Q: For `CC[C@H]1OC(=O)[C@H](C)[C@@H](O[C@H]2C[C@@](C)(OC)[C@@H](O)[C@H](C)O2)[C@H](C)[C@@H](O[C@@H]2O[C@H](C)C[C@H](N(C)C)[C@H]2O)[C@](C)(O)C[C@@H](C)CN(CCCNC(=O)c2ocnc2C)[C@H](C)[C@@H](O)[C@]1(C)O` [Example 34, 9a-(3-{[(4-Methyl-1,3-oxazol-5-yl)carbonyl]amino}propyl)-9a-aza-9-deoxo-9-dihydro-9a-homoerythromycin A Formiate Salt], which IC50 [1, 3] is on record?
A: 2.5 to 2.8 µg/mL

Q: What about the IC50 (P. falciparum TM91C235; [4]) of the same molecule?
A: 0.2 to 1 µg/mL

Q: And the IC50 [2, 5]?
A: 1 to 2.5 µg/mL

Q: What does the source list for `CC[C@H]1OC(=O)[C@H](C)[C@@H](O)[C@H](C)[C@@H](O[C@@H]2O[C@H](C)C[C@H](N(C)C)[C@H]2O)[C@](C)(O)C[C@@H](C)CN(CCCNC(=O)Cc2cccc3ccccc23)[C@H](C)[C@@H](O)[C@]1(C)O` [Example 36, 9a-{3-[(Naphtalen-1-yl-acetyl)amino]propyl}-3-O-decladinosyl-9a-aza-9-deoxo-9-dihydro-9a-homoerythromycin A Formiate Salt]?
A: IC50 [1, 3]: 1 to 2.5 µg/mL; IC50 (P. falciparum TM91C235; [4]): 1 to 2.5 µg/mL; IC50 [2, 5]: 1 to 2.5 µg/mL

Q: What does the source list for `CC[C@H]1OC(=O)[C@H](C)[C@@H](O)[C@H](C)[C@@H](O[C@@H]2O[C@H](C)C[C@H](N(C)C)[C@H]2O)[C@](C)(O)C[C@@H](C)CN(CCCNC(=O)[C@H](C)c2ccc3cc(OC)ccc3c2)[C@H](C)[C@@H](O)[C@]1(C)O` [Example 37, 9a-[3-({(2S)-2-[6-(methyloxy)-naphthalen-2-yl]propanoyl}amino)propyl]-3-O-decladinosyl-9a-aza-9-deoxo-9-dihydro-9a-homoerythromycin A Formiate Salt]?
A: IC50 [1, 3]: 0.2 to 1 µg/mL; IC50 (P. falciparum TM91C235; [4]): 0.2 to 1 µg/mL; IC50 [2, 5]: 0.2 to 1 µg/mL

Q: `CC[C@H]1OC(=O)[C@H](C)[C@@H](O[C@H]2C[C@@](C)(OC)[C@@H](O)[C@H](C)O2)[C@H](C)[C@@H](O[C@@H]2O[C@H](C)C[C@H](N(C)C)[C@H]2O)[C@](C)(O)C[C@@H](C)CN(CCC(=O)NCc2ccccc2)[C@H](C)[C@@H](O)[C@]1(C)O` [Example 38] was tested. Which IC50 [1, 3] did it give?
A: 0.2 to 1 µg/mL (≈ 0.223 to 1.12 µM)

Q: And the IC50 (P. falciparum TM91C235; [4])?
A: 0.2 to 1 µg/mL (≈ 0.223 to 1.12 µM)

Q: And the IC50 [2, 5]?
A: 0.2 to 1 µg/mL (≈ 0.223 to 1.12 µM)

Q: For `CC[C@H]1OC(=O)[C@H](C)[C@@H](O[C@H]2C[C@@](C)(OC)[C@@H](O)[C@H](C)O2)[C@H](C)[C@@H](O[C@@H]2O[C@H](C)C[C@H](N(C)C)[C@H]2O)[C@](C)(O)C[C@@H](C)CN(CCC(=O)NCCc2ccccc2)[C@H](C)[C@@H](O)[C@]1(C)O` [Example 39], which IC50 [1, 3] is on record?
A: 0.2 to 1 µg/mL (≈ 0.22 to 1.1 µM)

Q: What about the IC50 (P. falciparum TM91C235; [4]) of the same molecule?
A: 0.2 to 1 µg/mL (≈ 0.22 to 1.1 µM)

Q: What about the IC50 [2, 5] of the same molecule?
A: 0.2 to 1 µg/mL (≈ 0.22 to 1.1 µM)

Q: Which IC50 [1, 3] does the source give for `CC[C@H]1OC(=O)[C@H](C)[C@@H](O[C@H]2C[C@@](C)(OC)[C@@H](O)[C@H](C)O2)[C@H](C)[C@@H](O[C@@H]2O[C@H](C)C[C@H](N(C)C)[C@H]2O)[C@](C)(O)C[C@@H](C)CN(CCC(=O)NCCCc2ccccc2)[C@H](C)[C@@H](O)[C@]1(C)O` [Example 40] here?
A: 0.2 to 1 µg/mL (≈ 0.216 to 1.08 µM)

Q: What about the IC50 (P. falciparum TM91C235; [4]) of the same molecule?
A: 0.1 to 0.2 µg/mL (≈ 0.108 to 0.216 µM)

Q: What about the IC50 [2, 5] of the same molecule?
A: 0.1 to 0.2 µg/mL (≈ 0.108 to 0.216 µM)

Q: `CC[C@H]1OC(=O)[C@H](C)[C@@H](O[C@H]2C[C@@](C)(OC)[C@@H](O)[C@H](C)O2)[C@H](C)[C@@H](O[C@@H]2O[C@H](C)C[C@H](N(C)C)[C@H]2O)[C@](C)(O)C[C@@H](C)CN(CCC(=O)NCCCCc2ccccc2)[C@H](C)[C@@H](O)[C@]1(C)O` [Example 41] was tested. Which IC50 [1, 3] did it give?
A: 0.1 to 0.2 µg/mL (≈ 0.107 to 0.213 µM)

Q: What about the IC50 (P. falciparum TM91C235; [4]) of the same molecule?
A: < 0.1 µg/mL

Q: What about the IC50 [2, 5] of the same molecule?
A: < 0.1 µg/mL

Q: Which IC50 [1, 3] does the source give for `CC[C@H]1OC(=O)[C@H](C)[C@@H](O[C@H]2C[C@@](C)(OC)[C@@H](O)[C@H](C)O2)[C@H](C)[C@@H](O[C@@H]2O[C@H](C)C[C@H](N(C)C)[C@H]2O)[C@](C)(O)C[C@@H](C)CN(CCC(=O)N[C@@H](C)c2cccc3ccccc23)[C@H](C)[C@@H](O)[C@]1(C)O` [Example 42] here?
A: 0.1 to 0.2 µg/mL (≈ 0.104 to 0.208 µM)

Q: And the IC50 (P. falciparum TM91C235; [4])?
A: < 0.1 µg/mL

Q: And the IC50 [2, 5]?
A: < 0.1 µg/mL

Q: With `CC[C@H]1OC(=O)[C@H](C)[C@@H](O[C@H]2C[C@@](C)(OC)[C@@H](O)[C@H](C)O2)[C@H](C)[C@@H](O[C@@H]2O[C@H](C)C[C@H](N(C)C)[C@H]2O)[C@](C)(O)C[C@@H](C)CN(CCC(=O)NCc2ccc3ccccc3c2)[C@H](C)[C@@H](O)[C@]1(C)O` [Example 43] as the molecule, how does the IC50 [1, 3] read?
A: 0.1 to 0.2 µg/mL (≈ 0.106 to 0.211 µM)

Q: What about the IC50 (P. falciparum TM91C235; [4]) of the same molecule?
A: < 0.1 µg/mL

Q: What about the IC50 [2, 5] of the same molecule?
A: < 0.1 µg/mL

Q: Which “IC50 D6” value ([1]; In vitro screening protocol I, P. falciparum D6) does the source give for `CC[C@H]1OC(=O)[C@H](C)[C@@H](O[C@H]2C[C@@](C)(OC)[C@@H](O)[C@H](C)O2)[C@H](C)[C@@H](O[C@@H]2O[C@H](C)C[C@H](N(C)C)[C@H]2O)[C@](C)(O)C[C@@H](C)CN(CCCNC(=O)CCc2ccccc2)[C@H](C)[C@@H](O)[C@]1(C)O` [Example 46, 9a-{3-[(3-Phenylpropanoyl)amino]propyl}-9a-aza-9-deoxo-9-dihydro-9a-homoerythromycin A] here?
A: C (200 < X ≦ 1000)

Q: What about the “IC50 TM91C235” value (P. falciparum TM91C235; [4]) of the same molecule?
A: C (200 < X ≦ 1000)

Q: And the “IC50 W2” value ([2]; In vitro screening protocol I, P. falciparum W2)?
A: C (200 < X ≦ 1000)

Q: How did the IC50 ([1]; D6, read-out: IC50 D6) turn out when `CC[C@H]1OC(=O)[C@H](C)[C@@H](O[C@H]2C[C@@](C)(OC)[C@@H](O)[C@H](C)O2)[C@H](C)[C@@H](O[C@@H]2O[C@H](C)C[C@H](N(C)C)[C@H]2O)[C@](C)(O)C[C@@H](C)CN(CCCNCc2ccccc2)[C@H](C)[C@@H](O)[C@]1(C)O` [Example 52, 9a-{3-[(Phenylmethyl)amino]propyl}-9-deoxo-9-dihydro-9a-aza-9a-homoerythromycin A] was run?
A: 0.2 to 1 µg/mL (≈ 0.227 to 1.13 µM)

Q: What about the IC50 (P. falciparum TM91C235) of the same molecule?
A: < 0.1 µg/mL

Q: What about the IC50 ([2]; W2, read-out: IC50 W2) of the same molecule?
A: < 0.1 µg/mL
